# Reference: US6737383B1, “Herbicidal oxadiazolidines” (priority 1999, dated 2004)
# How the values were obtained:
# bedstraw = assay: Test B pre/postemergence bedstraw; format: in vivo, Galium aparine; settings: Postemergence
# Procedure, shortened: (§1)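 Herbicidal effect was estimated by eye on a ten-point control scale after plants spent twelve to sixteen days in a greenhouse following soil or foliar treatment. Foliar sprays targeted plants at one to four leaves; all doses were formulated in a non-phytotoxic solvent with surfactant.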
# blackgrass = assay: Test B pre/postemergence blackgrass; format: in vivo, Alopecurus myosuroides
# Procedure, shortened: as §1
# surinam grass = assay: Test B pre/postemergence surinam grass; format: in vivo, Brachiaria decumbens
# Procedure, shortened: as §1
# cocklebur = assay: Test B pre/postemergence cocklebur; format: in vivo, Xanthium strumarium
# Procedure, shortened: as §1
# corn = assay: Test B pre/postemergence corn; format: in vivo, Zea mays
# Procedure, shortened: as §1
# giant foxtail = assay: Test B pre/postemergence giant foxtail; format: in vivo, Setaria faberii
# Procedure, shortened: as §1
# morningglory = assay: Test B pre/postemergence morningglory; format: in vivo, Ipomoea hederacea
# Procedure, shortened: as §1
# pigweed = assay: Test B pre/postemergence pigweed; format: in vivo, Amaranthus retroflexus
# Procedure, shortened: as §1
# rape = assay: Test B pre/postemergence rape; format: in vivo, Brassica napus
# Procedure, shortened: as §1
# soybean = assay: Test B pre/postemergence soybean; format: in vivo, Glycine max
# Procedure, shortened: as §1
# sugar beet = assay: Test B pre/postemergence sugar beet; format: in vivo, Beta vulgaris
# Procedure, shortened: as §1
# velvetleaf = assay: Test B pre/postemergence velvetleaf; format: in vivo, Abutilon theophrasti
# Procedure, shortened: as §1
# wheat = assay: Test B pre/postemergence wheat; format: in vivo, Triticum aestivum
# Procedure, shortened: as §1
# wild oat = assay: Test B pre/postemergence wild oat; format: in vivo, Avena fatua
# Procedure, shortened: as §1
# rice = assay: Test B flood test rice; format: in vivo, Oryza sativa
# Procedure, shortened: (§2)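 Each value is a visual injury score relative to controls, with 10 meaning complete control and 0 no effect. Evaluation took place twelve to sixteen days after the 2-leaf-stage plants were treated and kept in the greenhouse.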
# smallflower flatsedge = assay: Test B flood test smallflower flatsedge; format: in vivo, Cyperus difformis
# Procedure, shortened: as §2
# [1] = Postemergence, Rate 250 g/ha, scale 0 to 10
# [2] = Postemergence, Rate 500 g/ha, scale of 0 to 10 where 0 is no effect and 10 is complete control
# [3] = Preemergence, Rate 62 g/ha, scale 0 to 10 (0 no effect, 10 complete control)
# [4] = Preemergence, Rate 125 g/ha, scale of 0 to 10 where 0 is no effect and 10 is complete control
# [5] = Preemergence, Rate 250 g/ha, scale 0 to 10, 0 is no effect, 10 is complete control
# [6] = Preemergence, Rate 500 g/ha, scale 0 to 10, 0 is no effect, 10 is complete control
# [7] = Rate 62 g/ha, Postemergence, scale of 0 to 10 where 0 is no effect and 10 is complete control
# [8] = Rate 125 g/ha, Postemergence, scale 0 to 10, 0 is no effect, 10 is complete control
# [9] = Postemergence block (flood test species), Rate 250 g/ha, scale 0 to 10
# [10] = Postemergence section (flood test species), Rate 500 g/ha, scale of 0 to 10 where 0 is no effect and 10 is complete control
# [11] = Rate 125 g/ha, Postemergence section (flood test species), scale 0 to 10, 0 is no effect, 10 is complete control
smiles,measurement,setting,value
C=CC[Si](C)(C)Cn1c(=O)on(C(=O)N(c2ccc(F)cc2)C(C)C)c1=O [Compound 426],Bedstraw plant response rating,"bedstraw; Rate 250 g/ha, scale 0 to 10",9
same,Bedstraw plant response rating,"bedstraw; Rate 500 g/ha, scale of 0 to 10 where 0 is no effect and 10 is complete control",9
same,Blackgrass plant response rating,blackgrass; [1],8
same,Blackgrass plant response rating,blackgrass; [2],8
same,"Plant response rating, Blackgrass",blackgrass; [3],4
same,"Plant response rating, Blackgrass",blackgrass; [4],6
same,Blackgrass plant response rating,blackgrass; [5],9
same,Blackgrass plant response rating,blackgrass; [6],9
same,Blackgrass plant response rating,blackgrass; [7],3
same,Blackgrass plant response rating,blackgrass; [8],6
same,B. signalgrass plant response rating,"surinam grass; Postemergence, Rate 250 g/ha, scale 0 to 10, 0 no effect, 10 complete control",7
same,B. signalgrass plant response rating,surinam grass; [2],8
same,"Plant response rating, B. signalgrass",surinam grass; [3],4
same,"Plant response rating, B. signalgrass",surinam grass; [4],4
same,B. signalgrass plant response rating,surinam grass; [5],6
same,B. signalgrass plant response rating,"surinam grass; Preemergence, Rate 500 g/ha, scale of 0 to 10 where 0 is no effect and 10 is complete control",8
same,B. signalgrass plant response rating,surinam grass; [7],2
same,B. signalgrass plant response rating,surinam grass; [8],5
same,Cocklebur plant response rating,cocklebur; [1],0
same,Cocklebur plant response rating,cocklebur; [2],0
same,"Plant response rating, Cocklebur",cocklebur; [3],0
same,"Plant response rating, Cocklebur",cocklebur; [4],0
same,Cocklebur plant response rating,cocklebur; [5],0
same,Cocklebur plant response rating,cocklebur; [6],0
same,Cocklebur plant response rating,cocklebur; [7],0
same,Cocklebur plant response rating,cocklebur; [8],0
same,Corn plant response rating,corn; [1],2
same,Corn plant response rating,corn; [2],4
same,"Plant response rating, Corn",corn; [3],0
same,"Plant response rating, Corn",corn; [4],0
same,Corn plant response rating,corn; [5],0
same,Corn plant response rating,corn; [6],6
same,Corn plant response rating,corn; [7],0
same,Corn plant response rating,corn; [8],0
same,Giant foxtail plant response rating,giant foxtail; [1],9
same,Giant foxtail plant response rating,giant foxtail; [2],9
same,"Plant response rating, Giant foxtail",giant foxtail; [3],9
same,"Plant response rating, Giant foxtail",giant foxtail; [4],9
same,Giant foxtail plant response rating,giant foxtail; [5],10
same,Giant foxtail plant response rating,giant foxtail; [6],10
same,Giant foxtail plant response rating,giant foxtail; [7],3
same,Giant foxtail plant response rating,giant foxtail; [8],7
same,Morningglory plant response rating,morningglory; [1],9
same,Morningglory plant response rating,morningglory; [2],9
same,"Plant response rating, Morningglory",morningglory; [3],0
same,"Plant response rating, Morningglory",morningglory; [4],0
same,Morningglory plant response rating,morningglory; [5],0
same,Morningglory plant response rating,morningglory; [6],6
same,Morningglory plant response rating,morningglory; [8],7
same,Redroot pigweed plant response rating,pigweed; [1],5
same,Redroot pigweed plant response rating,pigweed; [2],6
same,"Plant response rating, Redroot pigweed",pigweed; [3],2
same,"Plant response rating, Redroot pigweed",pigweed; [4],4
same,Redroot pigweed plant response rating,pigweed; [5],8
same,Redroot pigweed plant response rating,pigweed; [6],10
same,Redroot pigweed plant response rating,pigweed; [8],0
same,Rape plant response rating,rape; [1],2
same,Rape plant response rating,rape; [2],4
same,"Plant response rating, Rape",rape; [3],0
same,"Plant response rating, Rape",rape; [4],0
same,Rape plant response rating,rape; [5],8
same,Rape plant response rating,rape; [6],10
same,Rape plant response rating,rape; [8],0
same,Soybean plant response rating,soybean; [1],6
same,Soybean plant response rating,soybean; [2],7
same,"Plant response rating, Soybean",soybean; [3],0
same,"Plant response rating, Soybean",soybean; [4],0
same,Soybean plant response rating,soybean; [5],0
same,Soybean plant response rating,soybean; [6],0
same,Soybean plant response rating,soybean; [8],4
same,Sugarbeets plant response rating,sugar beet; [1],3
same,Sugarbeets plant response rating,sugar beet; [2],3
same,"Plant response rating, Sugarbeets",sugar beet; [3],0
same,"Plant response rating, Sugarbeets",sugar beet; [4],3
same,Sugarbeets plant response rating,sugar beet; [5],4
same,Sugarbeets plant response rating,sugar beet; [6],6
same,Sugarbeets plant response rating,sugar beet; [8],3
same,Velvetleaf plant response rating,velvetleaf; [1],1
same,Velvetleaf plant response rating,velvetleaf; [2],2
same,"Plant response rating, Velvetleaf",velvetleaf; [3],0
same,"Plant response rating, Velvetleaf",velvetleaf; [4],2
same,Velvetleaf plant response rating,velvetleaf; [5],2
same,Velvetleaf plant response rating,velvetleaf; [6],5
same,Velvetleaf plant response rating,velvetleaf; [8],0
same,Wheat plant response rating,wheat; [1],0
same,Wheat plant response rating,wheat; [2],2
same,"Plant response rating, Wheat",wheat; [3],0
same,"Plant response rating, Wheat",wheat; [4],0
same,Wheat plant response rating,wheat; [5],2
same,Wheat plant response rating,wheat; [6],6
same,Wheat plant response rating,wheat; [8],0
same,Wild oats plant response rating,wild oat; [1],2
same,Wild oats plant response rating,wild oat; [2],2
same,"Plant response rating, Wild oats",wild oat; [3],2
same,"Plant response rating, Wild oats",wild oat; [4],7
same,Wild oats plant response rating,wild oat; [5],8
same,Wild oats plant response rating,wild oat; [6],10
same,Wild oats plant response rating,wild oat; [8],0
same,Rice plant response rating,rice; [9],0
same,Rice plant response rating,rice; [10],0
same,Rice plant response rating,rice; [11],0
same,S. Flatsedge plant response rating,smallflower flatsedge; [9],0
same,S. Flatsedge plant response rating,smallflower flatsedge; [10],0
same,S. Flatsedge plant response rating,smallflower flatsedge; [11],0
